These results are taken from PMC3445516 (PLoS ONE, 2012).

Assay [1] has as its target T1, recombinant GST-tagged human protein kinase D1 (PKD1) (Homo sapiens, UniProt Q15139).
T1 construct: purchased Enzo Life sciences (Farmingdale, NY)
T1 sequence (Q15139 1-912): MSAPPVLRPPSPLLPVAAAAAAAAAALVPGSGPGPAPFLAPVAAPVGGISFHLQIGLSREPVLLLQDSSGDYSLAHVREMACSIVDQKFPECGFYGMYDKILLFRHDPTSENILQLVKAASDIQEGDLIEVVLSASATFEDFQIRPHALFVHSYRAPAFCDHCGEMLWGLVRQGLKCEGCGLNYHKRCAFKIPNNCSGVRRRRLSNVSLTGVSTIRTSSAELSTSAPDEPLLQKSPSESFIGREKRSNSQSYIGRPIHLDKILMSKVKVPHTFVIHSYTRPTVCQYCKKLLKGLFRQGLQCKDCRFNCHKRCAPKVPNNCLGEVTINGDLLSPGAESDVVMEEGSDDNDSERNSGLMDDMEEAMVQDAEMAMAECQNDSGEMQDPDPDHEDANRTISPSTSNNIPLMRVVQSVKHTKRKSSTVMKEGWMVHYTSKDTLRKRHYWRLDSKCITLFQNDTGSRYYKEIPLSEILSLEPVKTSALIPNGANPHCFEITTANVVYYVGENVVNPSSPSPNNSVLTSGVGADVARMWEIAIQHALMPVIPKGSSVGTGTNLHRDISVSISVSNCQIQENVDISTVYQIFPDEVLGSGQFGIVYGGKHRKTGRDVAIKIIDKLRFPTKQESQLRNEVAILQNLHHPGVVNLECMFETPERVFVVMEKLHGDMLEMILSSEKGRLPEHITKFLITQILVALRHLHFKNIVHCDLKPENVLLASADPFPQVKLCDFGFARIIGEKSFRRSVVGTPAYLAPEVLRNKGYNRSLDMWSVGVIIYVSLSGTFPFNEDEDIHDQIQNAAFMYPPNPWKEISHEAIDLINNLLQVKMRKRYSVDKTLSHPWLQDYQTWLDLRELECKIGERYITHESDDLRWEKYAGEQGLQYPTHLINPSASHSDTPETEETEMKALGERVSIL
In words: In vitro radiometric PKD1 kinase assay. Type of assay: biochemical. The conditions noted are these: for inhibition at 1 µM: read-out: Inhibition of PKD1. Here is the method:
All compounds were given distinct UPCMLD (University of Pittsburgh Center for Chemical Methodologies and Library Development) IDs and were then assigned numerical IDs for convenient data display. Evaluation of each compound was carried out in triplicate at a single concentration (1 µM). Our previously described PKD1 inhibitor, kb-NB142-70, and DMSO (solvent alone) were used as positive and negative controls, respectively. Percent residual kinase activity was calculated based on that of the negative control (DMSO).
Kinase active recombinant GST-tagged human protein kinase D1 (PKD1) was obtained from Enzo Life sciences (Farmingdale, NY). DMSO was purchased from Sigma. Recombinant PKCα, PKCδ and CAMKIIα were obtained from SignalChem (Richmond, BC, Canada). ATP was purchased from Fisher Scientific. HDAC5 substrate peptide was synthesized by Biobasic Canada Inc. (Markham, ON). Myelin basic protein 4–14 was purchased from AnaSpec Inc. (Fremont, CA). The targeted kinase inhibitor library was obtained from Hoffmann-La Roche, Inc.
1.2 µg of HDAC-5 was used as substrate in the reaction. Phosphorylation of HDAC5 was detected in a kinase reaction having 1 µCi [γ-^32P] […] The reaction was incubated at 30° for 10 minutes and 25 µL of the reaction was spotted on Whatman P81 filter paper. The filter paper was washed 3 times in 0.5% phosphoric acid, air dried and counted using Beckman LS6500 multipurpose scintillation counter. Percent PKD1 inhibition was graphed using GraphPad Prism software 5.0.

Another assay has as its target PKCδ (Homo sapiens, UniProt Q05655). In words: In vitro radiometric PKC kinase assay. More on the design: purchased SignalChem (Richmond, BC, Canada). The conditions noted are these: read-out: inhibition of PKCδ. Type of assay: biochemical. Here is the method: In this study, we counter-screened the twenty-eight PKD1 inhibitory agents for inhibition of PKCα, PKCδ and CAMKIIα in order to get an initial profile for the potential PKD selectivity, since these are the functionally most closely related kinases. The compounds were examined at 0.1, 1 and 10 µM concentration. […] Next, the inhibitory activity for CAMKIIα was examined.
The PKC kinase assay was carried out by co-incubating 1 µCi [γ-^32P]ATP, 20 µM ATP, 50 ng of purified PKCα or PKCδ and 5 µg of myelin basic protein 4–14, 0.25 mg/mL bovine serum albumin, 0.1 mg/mL phosphatidylcholine/phosphatidylserine (80/20%) (1 µM), 1 µM phorbol dibutyrate in 50 µL of kinase buffer containing 50 mM Tris-HCl, pH 7.5, 4 mM MgCl2 and 10 mM β-mercaptoethanol. For the CAMK assay, 50 ng of CAMK and 2 µg Syntide-2 substrate in 50 µL kinase buffer were incubated with 0.1 mM MgCl2, 1 µCi of [γ-^32P] ATP, 70 µM ATP. 0.5 mM CaCl2 and 30 ng/µL calmodulin were preincubated for 15 min on ice and then added in the kinase reaction. The reactions were incubated at 30°C for 10 minutes and 25 µL of the reaction was spotted on Whatman P81 filter paper. The filter paper was washed 3 times in 0.5% phosphoric acid, air dried and counted using Beckman LS6500 multipurpose scintillation counter.

Assay [2] has as its system PKD1. Also noted: method as in PMID 18829454, PMID 22267986, PMID 21617763, PMID 20444281, PMID 21998636. To be noted: cited from earlier work; for IC50: previous HTS assays; for inhibition of PKD1 in vitro: previous work.
Assay [3] deals with PKD1 in LNCaP prostate cancer cells. Also noted: method as in PMID 18829454, PMID 22267986, PMID 21617763, PMID 20444281, PMID 21998636. The conditions noted are these: cited from earlier work.
Assay [4] deals with T2, endogenous PKD1 in LNCaP prostate cancer cells (Homo sapiens, UniProt Q15139).
T2 construct: endogenous in cells; host or cells: LNCaP prostate cancer cells
T2 sequence (Q15139 1-912): T1 sequence (Q15139 1-912)
Description: PMA-induced activation of PKD1 in LNCaP cells (immunoblot pS916 / pS744/748). The conditions noted are these: PMA 10 nM. In kind it is cell-based. Here is the method:
(§1) PMA induces PKC-dependent phosphorylation of Ser744/748 (S^744/748) in the activation loop followed by autophosphorylation of PKD1 on Ser916 (S^916) in the C-terminus, [31]. The catalytic activity of PKD1 correlates well with the level of phosphorylation at S^916 [31].
(§2) Figure 5 In vitro IC50, cellular activity, and mode of action of representative compounds. […] IC50 values were calculated based on the dose-response curve. Data are represented as mean ± SEM of 3 independent experiments. […] Cell lysates were subjected to immunoblotting for pS^916-PKD1 and pS^744/748-PKD1. Tubulin was blotted as loading control. The experiments were repeated three times and representative blots are shown. C.

The target of assay [5] is T3, PKD1 (Homo sapiens, UniProt Q15139).
T3 construct: purchased Enzo Life sciences (Farmingdale, NY)
Description: Kinetic analysis, Lineweaver-Burk plots (ATP competition). Type of assay: biochemical. The protocol:
as §1, §2

The mark [6] stands for this setting: 1 µM, triplicate determinations.

Like-named read-outs stand apart in the source and are kept apart here.

Sequence of PKCδ (Q05655 whole entry): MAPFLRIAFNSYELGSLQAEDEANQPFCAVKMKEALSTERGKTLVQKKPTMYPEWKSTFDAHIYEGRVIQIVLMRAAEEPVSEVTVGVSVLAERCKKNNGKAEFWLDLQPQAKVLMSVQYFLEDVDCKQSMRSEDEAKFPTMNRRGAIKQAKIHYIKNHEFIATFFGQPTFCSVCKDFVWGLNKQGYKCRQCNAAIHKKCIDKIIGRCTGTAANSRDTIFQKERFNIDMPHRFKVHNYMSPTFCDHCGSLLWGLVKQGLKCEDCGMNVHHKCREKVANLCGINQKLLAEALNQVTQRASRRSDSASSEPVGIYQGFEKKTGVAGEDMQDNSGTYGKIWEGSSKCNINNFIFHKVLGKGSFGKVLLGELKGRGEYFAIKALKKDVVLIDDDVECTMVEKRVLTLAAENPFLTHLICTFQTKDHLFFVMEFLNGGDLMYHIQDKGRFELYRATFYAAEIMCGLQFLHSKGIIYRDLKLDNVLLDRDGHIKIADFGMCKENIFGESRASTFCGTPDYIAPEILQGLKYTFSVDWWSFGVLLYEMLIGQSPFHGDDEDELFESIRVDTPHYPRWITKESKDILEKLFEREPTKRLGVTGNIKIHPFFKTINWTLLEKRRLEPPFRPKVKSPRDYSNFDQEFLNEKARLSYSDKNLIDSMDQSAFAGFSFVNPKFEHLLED

Take `Cc1cc(C)c2c(n1)sc1c(N)ncnc12` [Compound 172]: the inhibition at 1 µM in assay [1] (setting [6]) was determined as 62%. At PKCδ (10 µM), the inhibition at 10 µM is around 50%. As to `CN[C@H](C#Cc1c(F)ccc2c1/C(=C/c1[nH]ccc1OC)C(=O)N2)CO` [Compound 16], in assay [1] (setting [6]), the inhibition at 1 µM worked out at 95%. Same read-out and setting: under `COc1cc[nH]c1C=C1C(=O)Nc2ccc(F)c(C#CC(O)C(N)C(C)O)c21` (stereo not drawn) [Compound 17] stands 97%; under `COc1cc[nH]c1/C=C1\C(=O)Nc2ccc(F)c(C#CC3(O)CCOCC3)c21` [Compound 13], 80%.

For the compound `O=C1N=C(N[C@H](CO)Cc2ccccc2)S/C1=C\c1ccc2ncccc2c1` [Compound 190], the inhibition at 1 µM in assay [1] (setting [6]) turned out to be 49%. Further, the inhibition at 10 µM on PKCδ (10 µM) is around 70%. Turning to `Cn1cc(C2=C(c3cccc4ccccc34)C(=O)NC2=O)c2ccccc21` [Compound 25], in assay [1] (setting [6]), the inhibition at 1 µM turned out to be 54%. In the case of `COc1cccc(C(=O)c2sc(Nc3ccc(N4CCN(C(C)C)CC4)cc3)nc2N)c1` [Compound 104], the inhibition at 1 µM in assay [1] worked out at 65%. For the same compound, the inhibition at 10 µM on PKCδ was around 50%.

As for `COc1ccc(O)c(C(=O)c2ccc(C(=O)O[C@@H]3CCCNC[C@H]3NC(=O)c3ccncc3)cc2)c1F` [Compound 100], the inhibition at 1 µM in assay [1] worked out at 77%. Turning to `Cn1cc(C2=C(c3cn(CCCO)c4ccccc34)C(=O)NC2=O)c2ccccc21` [Compound 34], the inhibition at 1 µM in assay [1] (setting [6]) worked out at 65%. As to `O=C1Nc2ccc(F)c3c(OCCO)cc(-c4ccc[nH]4)c1c23` [Compound 101], the inhibition at 1 µM in assay [1] was determined as 86%. Moreover, the inhibition at 10 µM on PKCδ was around 50%.

For `COc1cc[nH]c1/C=C1\C(=O)Nc2ccc([N+](=O)[O-])c(N3CC[C@@H](O)C3)c21` [Compound 102], the inhibition at 1 µM in assay [1] (setting [6]) stood at 93%. As for `O=C1N=C(NCc2ccccc2)S/C1=C\c1ccc2ncccc2c1` [Compound 178], the inhibition at 1 µM in assay [1] (setting [6]) was found to be 55%. The inhibition at 10 µM at PKCδ (10 µM) was around 50%. `Cn1c(-c2ccncc2)c(-c2ccc(F)cc2)c2ncccc21` [Compound 121]: in assay [1], the inhibition at 1 µM was found to be 55%. Take `O=C1NCCCc2c1oc1ccc(O)cc21` [CID755673]: in the assay on PKD1 [2], the IC50 is 182 nM and the “inhibition of PKD1 in vitro” value is “low nanomolar range”. Also, the “suppression of PKD1 autophosphorylation at Ser916” value in assay [3] is given as “low micromolar range”. Consider `NC1=NC(=O)/C(=C/c2ccc3ncccc3c2)S1` [Compound 205], for which the inhibition at 1 µM in assay [1] (setting [6]) turned out to be 82%. On the same count and under the same terms, under `O=C1N=C(N[C@H](CO)c2ccccc2)S/C1=C\c1ccc2ncccc2c1` [Compound 203] stands 85%.

Consider `O=C(Nc1ccc(CN2CCOCC2)cc1)c1ccc(-c2cccc(Cl)c2)o1` [CID2011756], for which the IC50 in the assay with PKD1 [2] was 3200 nM. Besides, the “inhibition of phorbol ester-induced endogenous PKD1 activation” value in assay [3] is reported as “in a concentration-dependent manner”. `COc1ccc(O)c(C(=O)c2ccc(C(=O)N[C@@H]3CCCNC[C@H]3NC(=O)c3ccncc3)cc2)c1F` [Compound 175]: in assay [1], the inhibition at 1 µM worked out at 78%. As for `O=C1Nc2ccc(F)cc2/C1=C/c1ccc[nH]1` [Compound 4], the inhibition at 1 µM in assay [1] (setting [6]) turned out to be 57%. As for `CNC1=NC(=O)/C(=C/c2ccc3ncccc3c2)S1` [Compound 209], the inhibition at 1 µM in assay [1] (setting [6]) is 64%. For the same compound, the IC50 in assay [1] (dose-response, mean ± SEM of 3 independent experiments) worked out at 562 nM; in assay [4] (densitometry of pS916-PKD1 levels, read-out: cellular IC50 for inhibition of PKD1), 18200 nM. Further, the “effect on PKC-induced transphosphorylation at S744/748” value in assay [4] is given as “did not affect”. Besides, the “mode of inhibition with respect to ATP” value at PKD1 [5] was “competitive with respect to ATP”. For the compound `COc1cc[nH]c1/C=C1\C(=O)Nc2ccccc21` [Compound 5], the inhibition at 1 µM in assay [1] (setting [6]) is 55%. With `Cc1cc(NCCCN)nc(-c2ccccc2O)n1` [CID5389142], in the assay on PKD1 [2], the IC50 was 1500 nM. For the same compound, the “inhibition of phorbol ester-induced endogenous PKD1 activation” value in assay [3] was “in a concentration-dependent manner”. On to `Fc1ccc(-c2c(-c3ccncc3)[nH]c3cccnc23)cc1` [Compound 116], for which the inhibition at 1 µM in assay [1] amounted to 86%. The inhibition at 10 µM on PKCδ is around 70%. As to `O=C1NCCSc2c1sc1ccc(O)cc21` [kb-NB142-70], in the assay on PKD1 [2], the IC50 was 28.3 nM and the “inhibition of PKD1 in vitro” value is listed as “low nanomolar range”. Moreover, the “suppression of PKD1 autophosphorylation at Ser916” value in assay [3] is reported as “low micromolar range”. In the case of `CNCC#Cc1c(F)ccc2c1/C(=C/c1[nH]ccc1OC)C(=O)N2` [Compound 11], the inhibition at 1 µM in assay [1] is 94%. For `CCN1/C(=C/C(C)=O)Sc2ccc(OC)cc21` [CID1893668], in the assay with PKD1 [2], the IC50 is 1700 nM. Moreover, the “inhibition of phorbol ester-induced endogenous PKD1 activation” value in assay [3] is “in a concentration-dependent manner”.

Consider `OCCn1c(-c2ccncc2)c(-c2ccc(F)cc2)c2ncccc21` [Compound 123], for which the inhibition at 1 µM in assay [1] (setting [6]) came to 58%. On the same count and under the same terms, then `CSc1c(C2=C(c3cn(C)c4ccccc34)C(=O)NC2=O)c2ccccc2n1C` [Compound 30], with 65%.
